The target of one test is MAPK14 (UniProt Q16539). The test can be described thus: Enzyme Assay.
The test system of test [1] is MAPK14 (Balb/c mice). Briefly: Animal Model. The settings on record: dose or concentration not given here.
Test [2] deals with EGFR (UniProt P00533).
Test [3] addresses EGFR (human) (UniProt P00533). The settings on record: kb.
The target of test [4] is EGFR (human) (UniProt P00533).
In test [5] the target is EGFR (human) (UniProt P00533). The conditions noted are these: a431.
Test [6] deals with EGFR (UniProt P00533). The conditions noted are these: concentration not given here.
Test [7] addresses EGFR (human) (UniProt P00533). The settings on record: huvec.
Test [8] deals with EGFR (human) (UniProt P00533). The source holds these as a separate data set.
For test [9], the target named is EGFR (human) (UniProt P00533). This is another data set of the same source.
The target of test [10] is EGFR (human) (UniProt P00533). The conditions noted are these: kb. This is another data set of the same source.
In test [11] the target is CDK2 (human) (UniProt P24941). Briefly: Enzyme Assay.
Test [12] deals with CDK2 (human) (UniProt P24941). The test can be described thus: Enzyme Assay. This is another data set of the same source.
Test [13] has as its target CDK2 (human) (UniProt P24941). The test can be described thus: Enzyme Assay. The source holds these as a separate data set.
Test [14] has as its target CDK2 (human) (UniProt P24941). The test can be described thus: Enzyme Assay. The source holds these as a separate data set.
For test [15], the target named is EGFR (murine) (UniProt P00533). The settings on record: nih3t3.
Sequence of EGFR (murine) (P00533 whole entry, looked up): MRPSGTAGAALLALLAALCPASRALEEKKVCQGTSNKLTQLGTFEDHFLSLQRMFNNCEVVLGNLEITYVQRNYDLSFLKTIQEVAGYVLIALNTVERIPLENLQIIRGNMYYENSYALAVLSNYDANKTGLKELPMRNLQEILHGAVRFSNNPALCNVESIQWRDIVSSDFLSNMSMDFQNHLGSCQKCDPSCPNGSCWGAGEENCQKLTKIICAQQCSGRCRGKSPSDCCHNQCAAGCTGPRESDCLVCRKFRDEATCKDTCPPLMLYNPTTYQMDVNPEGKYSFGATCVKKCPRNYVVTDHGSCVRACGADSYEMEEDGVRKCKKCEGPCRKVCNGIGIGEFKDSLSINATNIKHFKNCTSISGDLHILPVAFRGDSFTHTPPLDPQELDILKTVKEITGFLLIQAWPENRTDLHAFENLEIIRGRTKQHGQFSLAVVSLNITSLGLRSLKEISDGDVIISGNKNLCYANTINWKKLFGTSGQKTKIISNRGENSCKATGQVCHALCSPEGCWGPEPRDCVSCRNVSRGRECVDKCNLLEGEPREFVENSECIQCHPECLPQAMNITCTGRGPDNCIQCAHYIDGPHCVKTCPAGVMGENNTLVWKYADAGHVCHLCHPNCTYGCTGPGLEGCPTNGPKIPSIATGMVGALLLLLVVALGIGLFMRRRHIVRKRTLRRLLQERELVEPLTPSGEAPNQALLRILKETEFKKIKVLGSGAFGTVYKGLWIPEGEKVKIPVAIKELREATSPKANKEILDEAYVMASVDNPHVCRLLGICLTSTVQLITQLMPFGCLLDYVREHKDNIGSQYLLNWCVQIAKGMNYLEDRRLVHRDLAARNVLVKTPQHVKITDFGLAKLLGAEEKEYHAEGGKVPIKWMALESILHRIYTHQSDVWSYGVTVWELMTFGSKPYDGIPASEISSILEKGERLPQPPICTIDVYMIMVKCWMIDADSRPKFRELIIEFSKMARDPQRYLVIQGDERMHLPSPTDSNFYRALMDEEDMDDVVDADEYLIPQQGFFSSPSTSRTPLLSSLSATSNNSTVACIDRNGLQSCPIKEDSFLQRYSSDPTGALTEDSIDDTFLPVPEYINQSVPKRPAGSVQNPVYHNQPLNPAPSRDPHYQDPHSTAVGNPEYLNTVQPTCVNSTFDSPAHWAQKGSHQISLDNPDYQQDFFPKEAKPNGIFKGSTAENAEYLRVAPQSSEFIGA
In test [16] the target is CDK2 (human) (UniProt P24941).
The next test addresses CDK2 (UniProt P24941). Briefly: Enzyme Assay.
The target in test [17] is EGFR (UniProt P00533). The source holds these as a separate data set.
The target in test [18] is EGFR (murine) (UniProt P00533). The settings on record: 32 d.
A further test has as its target EGFR (mouse) (UniProt P00533). The settings on record: mk.
Test [19] concerns EGFR (murine), P00533 [Antiproliferation of 32D/EGFRvIII Cells].
Test [20] has as its target EGFR (human) (UniProt P00533). The source holds these as a separate data set.
The test system of test [21] is MAPK14 (Balb/c mice). Briefly: Cell-Based Assay. The settings on record: peritoneal macrophage.
Test [22] has as its target EGFR (human) (UniProt P00533). This is another data set of the same source.
In test [23] the target is EGFR (human) (UniProt P00533). The conditions noted are these: A431.
For test [24], the target named is EGFR (human) (UniProt P00533). This is another data set of the same source.
The target in test [25] is EGFR (human) (UniProt P00533). The settings on record: a431. The source holds these as a separate data set.
The target of test [26] is EGFR (human) (UniProt P00533). The settings on record: A431. This is another data set of the same source.
Test [27] concerns the target EGFR (human) (UniProt P00533). The source holds these as a separate data set.
The next test deals with ROCK2 (human) (UniProt O75116). Briefly: Inhibition of ROCK2 Kinase Activity. The conditions noted are these: concentration not given here.

Sequence of EGFR (human) (P00533 whole entry, looked up): as above
Sequence of EGFR (P00533 whole entry, looked up): as above
Sequence of MAPK14 (Q16539 whole entry, looked up): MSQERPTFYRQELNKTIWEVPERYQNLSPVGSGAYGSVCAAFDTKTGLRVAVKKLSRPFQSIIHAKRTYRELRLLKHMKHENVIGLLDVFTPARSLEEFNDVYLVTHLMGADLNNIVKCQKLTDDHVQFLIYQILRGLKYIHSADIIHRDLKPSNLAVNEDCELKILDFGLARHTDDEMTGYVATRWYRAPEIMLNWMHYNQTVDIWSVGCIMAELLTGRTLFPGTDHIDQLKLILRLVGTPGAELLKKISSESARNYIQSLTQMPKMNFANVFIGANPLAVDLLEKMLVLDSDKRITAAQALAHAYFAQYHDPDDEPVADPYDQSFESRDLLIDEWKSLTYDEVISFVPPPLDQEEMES

In general, IC50 refers to the point on the concentration scale where inhibition reaches its midpoint. High values mean weaker potency, low ones greater potency. `Cc1cc(-c2[nH]c(-c3ccc([S+](C)[O-])cc3)nc2-c2ccc(F)cc2)ccn1` (stereo not drawn) had a 50% inhibitory concentration (IC50) against MAPK14 of 370 nM. The difference with MAPK14 (Balb/c mice) [1] was -64%.
On to `c1ccc(-c2cnc(Nc3ccc(OCCN4CCCC4)cc3)s2)cc1`, for which the concentration for half-maximal inhibition (IC50) at EGFR [2] was above 10000 nM.
For `COc1cc2ncnc(Nc3cccc(Cl)c3F)c2cc1CN(C)C1(C(N)=O)CCN(S(C)(=O)=O)CC1`, the results for the IC50 against EGFR (human) [3] and against EGFR (human) [4] were 91 nM and 9 nM, respectively.
As to `CC(C)C[C@@H]1NC(=O)[C@H](CC(C(=O)O)C(=O)O)NC(=O)C[S+]([O-])C[C@@H](C(N)=O)NC(=O)CCCCNC(=O)[C@H](CC(N)=O)NC(=O)C2(CCCCC2)NC(=O)[C@H](Cc2ccc(O)c(N)c2)NC1=O` (stereo partly drawn), the half-inhibitory concentration (IC50) against EGFR (human) [5] was 100000 nM.
A word on the inhibition: it is the relative decrease from the control value, in per cent. As for `CN1CCN(Cc2ccc(Nc3nc4ncc(C#N)c(Nc5ccc(Oc6ccccc6)cc5)c4s3)cc2)CC1`, the inhibition on EGFR [6] came to 0%.
`COc1cc2c(Nc3ccc(Br)cc3F)ncnc2cc1OCC1CCN(C(=O)CN(C)C)CC1` registered a half-maximal inhibitory concentration (IC50) against EGFR (human) [7] of 100 nM.
For `CCOCOc1cc(OCOCC)c2c(c1Cl)CC(=O)C=CCCC=CC[C@H](c1ccccc1)OC2=O`, at EGFR (human) [8], the IC50 came out at 33000 nM. This lies in the double-digit micromolar range.
For the compound `COc1cc2ncnc(Nc3cccc(Cl)c3F)c2cc1OC1CCN(C(=O)OCCN2CCCCC2)CC1`, the concentration for half-maximal inhibition (IC50) on EGFR (human) [9] was found to be 2 nM; at EGFR (human) [10], 10 nM.
Turning to `COCCCNS(=O)(=O)c1ccc(Nc2nccc(-c3cnc4ccccn34)n2)cc1`, the IC50 at CDK2 (human) [11] stood at 84 nM; on CDK2 (human) [12], 34 nM; against CDK2 (human) [13], 4 nM; on CDK2 (human) [14], 3 nM.
As to `COc1ccccc1Oc1cccc2nc(N)nc(N)c12`, in the test with EGFR (murine) [15], the half-inhibitory concentration (IC50) was above 100000 nM.
On CDK2 (human) [16], `NC(=O)c1sc(-c2ccsc2)cc1N` came in with an IC50 of 61000 nM.
For the compound `COc1cc(OC)c(/C=C/S(=O)(=O)Cc2ccc(OC)c(NC(C)C(=O)O)c2)c(OC)c1` (stereo not drawn), the half-maximal inhibitory concentration (IC50) is above 10000 nM on CDK2 and 8000 nM on EGFR [17].
Consider `CCN1CCN(Cc2ccc(-c3cc4c(N[C@H](C)c5ccccc5)ncnc4[nH]3)cc2)CC1`, for which the IC50 with EGFR (murine) [18] turned out to be 300 nM; with EGFR (mouse), 56 nM; in test [19], 10 nM.
As to `CCN(CC)Cc1ccc(-c2cc3c(N[C@H](C)c4ccccc4)ncnc3[nH]2)cc1`, at EGFR (human) [20], the IC50 is 4 nM.
For `OCCC#Cc1nc(-c2ccc(F)cc2)c(-c2ccncc2)n1CCCc1ccccc1`, the 50% inhibitory concentration (IC50) turned out to be 19.2 nM in the test with MAPK14 (Balb/c mice) [21] and 16.1 nM at MAPK14.
In the case of `Nc1nc(Nc2ccc(S(N)(=O)=O)cc2)nn1C(=O)c1c(F)cccc1F`, the IC50 is above 10000 nM on EGFR (human) [22], above 100000 nM against EGFR (human) [23] and above 100000 nM against EGFR (human) [24].
`C=CC(=O)Cc1ccc2ncnc(Nc3cccc(Br)c3)c2c1`: the half-maximal inhibitory concentration (IC50) on EGFR (human) [25] came out at 12600 nM.
Regarding `CCc1cc2cccc(C#CCCc3ccccc3)c2cc1CC`, the half-maximal inhibitory concentration (IC50) against EGFR (human) [26] is 14 nM.
`CN(C(=O)C1CCCCC1)c1ccc2c(c1)nc(NC(=O)c1cccs1)n2CCC(N)=O` had an IC50 at EGFR (human) [27] above 6000 nM. The inhibition at ROCK2 (human) was -1%; against CDK2 (human) [13] (concentration not given here), 7%.
